Data on three compounds can be found in publication PMC3972617 (Xenobiotica; the fate of foreign compounds in biological …, 2013).

Data set [1] relates to indomethacin-induced small intestinal injury. The experiment in a line: Indomethacin-induced enteropathy in mice.
In data set [2] the test system is primary mouse hepatocytes. Put plainly: LDH release cytotoxicity in cultured primary mouse hepatocytes. The class given is cell-based. The following applies: 24 h exposure.
Data set [3] concerns diclofenac (DCF)-induced small intestinal injury. The experiment in a line: Diclofenac-induced enteropathy in mice. In kind it is in vivo, male C57BL/6J mice.
The nature of data set [4]: Pharmacokinetic profiling of Inhibitor-1 in mice. The class given is in vivo. The following applies: for AUC(0-t): AUC0–24 h.
For data set [5], the system named is diclofenac (DCF)-induced small intestinal injury. Particulars: Inh-1 given prior to DCF (60 mg/kg, ip); ref LoGuidice et al., 2012; cited from earlier work.
For data set [6], the system named is ketoprofen-induced small intestinal injury. Put plainly: Ketoprofen-induced enteropathy in mice. In kind it is in vivo, male C57BL/6J mice. Particulars: Inh-1 10 μg/mouse po bid for 2 days before ketoprofen 100 mg/kg ip; 18 h.
The mark [7] stands for this setting: single oral dose Inh-1 10 μg/mouse 3 h after DCF 60 mg/kg ip, 18 h after DCF.
The mark [8] stands for this setting: C57BL/6J, mouse, plasma, iv, 3 mg/kg, Inh-1 3 mg/kg iv, vehicle pretreatment.
Setting [9] is: C57BL/6J, mouse, plasma, po, 3 mg/kg, Inh-1 3 mg/kg po, vehicle pretreatment.

Structures are written as SMILES.

Regarding `COc1ccc2c(c1)c(CC(=O)O)c(C)n2C(=O)c1ccc(Cl)cc1` [indomethacin, Indomethacin, reference compound], in data set [1] (single dose of indomethacin alone 10 mg/kg ip, 18 h, majority of lesions in quartiles 2 and 3), the “small intestinal mucosal ulceration” value is given as “marked mucosal ulceration”.
For `O=C(O)Cc1ccccc1Nc1c(Cl)cccc1Cl` [DCF, diclofenac, reference compound], the “LDH release from the cells” value in data set [2] (DCF 1000 μM) was “significant increases in LDH release”.
A word on the AUC(0-t): it is the area under the concentration-time curve up to a stated or last time point. The Cmax is the highest concentration seen after dosing. In general, half-life refers to how long it takes for the measured level to halve. What is called Tmax is the time from dosing to the highest level. As for `CCOc1ccc(NC(=S)N(CCO)Cc2cc3cc(C)cc(C)c3[nH]c2=O)cc1` [Inh-1, 1-((6,8-dimethyl-2-oxo-1,2-dihydroquinolin-3-yl)methyl)-3-(4-ethoxyphenyl)-1-(2-hydroxyethyl)thiourea], the “protection against DCF-induced enteropathy, post-treatment” value in data set [3] (Inh-1 administered 3-h post-DCF (60 mg/kg, ip)) is “partial protection”. Further, in data set [3] (setting [7]), the “average area of total ulcers per mouse versus DCF alone” value is listed as “not significantly different” and the “reduction of average ulcer number per mouse versus DCF controls” value was 71%. Also, in data set [4] (setting [8]), the AUC(0-t) was found to be 4380 ng·h/mL and the Cmax is 7190 ng/mL. The half-life in data set [4] (C57BL/6J, mouse, plasma, iv, 3 mg/kg, T1/2, Inh-1 3 mg/kg iv, vehicle pretreatment) is 42 min. Further, in data set [4] (setting [9]), the AUC(0-t) came to 925 ng·h/mL and the Cmax is 513 ng/mL. Besides, the time of peak concentration (Tmax) in data set [4] (C57BL/6J, mouse, plasma, po, 3 mg/kg, Tmax, Inh-1 3 mg/kg po, vehicle pretreatment) stood at 30 min. Moreover, the “time at which maximal plasma levels were attained” value in data set [4] (single oral administration of Inh-1 3 mg/kg) stood at 30 min. Also, the “protection against DCF-induced enteropathy, pretreatment” value in data set [5] is “complete protection”. For the same compound, the “decrease of total area of indomethacin-induced intestinal injury” value in data set [1] (Inh-1 10 μg/mouse po bid for 2 days, last dose 1 h before indomethacin 10 mg/kg ip, 18 h post-dose) was 89%. For the same compound, the “NBT staining of jejunal mucosa (oxidoreductive stress)” value in data set [1] (Inh-1/indomethacin co-treated mice, 1 mM nitroblue tetrazolium incubation) is “remained unstained”. Further, the “LDH release versus solvent controls” value in data set [2] (Inh-1 100 μM alone) is “did not significantly increase LDH release”. The “effect on DCF concentration-toxic response curve (LDH release)” value in data set [2] (Inh-1 100 μM with DCF 500 or 1000 μM) is recorded as “did not alter the concentration-toxic response curve”. The “co-treated mice with an ulcer (one small ulcer)” value in data set [6] was 1/11.
